Legend:
[1] = Inhibition of linoleic acid peroxidation induced by AAPH; assay type: biochemical; conditions: no = no action under the experimental conditions
Excerpt: In the water soluble 2,2′-azobis(2-amidinopropane) hydrochloride (AAPH) the free radicals are produced in vitro through spontaneous thermal decomposition resembling to lipid peroxidation in cells due to the action of the peroxyl radicals. […] Compounds 11, 5, 4 and 3 presented no activity under the experimental conditions. From the experimental results it can be concluded that the 3,5-di-tert-butyl-group offers protection against lipid peroxidation. Electronic parameters expressed by the highest occupied molecular orbital (HOMO) describes better the biological activity (Equation (2)). log AAPH % = −22.042(± 8.731) HOMO − 4.853 (2.622)(2) n = 8, r = 0.930, r^2 = 0.864, q^2 = 0.567, s = 0.146, F1,8 = 5.783, α = 0.1
The oxidation reaction was started with 2,2′-Azobis(2-amidinopropane) dihydrochloride (AAPH) as a free radical initiator. Linoleic acid sodium salt was oxidized at 234 nm to a conjugated diene hydroperoxide resulting an increased absorption. Trolox was used as reference compound (93%) (Table 3).

[2] = ABTS+. decolorization assay; assay type: biochemical; conditions: 1 min, no = no action under the experimental conditions
Excerpt: The radical cation ABTS^+• is directly generated through potassium persulfate by oxidation with no participation of an intermediary radical and then the reduction is followed by adding electron-donating antioxidants. In this assay the radical is generated before adding the antioxidant (decolorization assay). […] It seems that lipophilicity influences the activity, since both are presenting high lipophilicity values. […] The radical cation ABTS^+• was generated from an ABTS stock solution in water (7 mM) which was mixed with potassium persulfate (2.45 mM) and left in the dark at room temperature for 12–16 h before use. The results are recorded after 1min of the mixing solutions at 734 nm and compared to the appropriate standard inhibitor Trolox (Table 3).

trypsin = test: In vitro inhibition of trypsin induced proteolysis; assay type: biochemical; conditions: bovine albumin substrate, no = no action under the experimental conditions
Method: Serine proteases are implicated in the pathophysiology of inflammatory diseases and trypsin is well known years ago [66]. Trypsin has been associated with host defense reactions and tissue damage. In this study, the novel derivatives have been evaluated towards trypsin and thrombin. Compounds 8 and 9 present high activity.
The Kunitz method was used after modification using bovine albumin was used as substrate for trypsin. In this assay, first 200 μL of 0.075 mg/mL trypsin and 780 μL of phosphate buffer pH 7.6 including the tested compounds (20 μL in DMSO, final concentration 100 μM) were pre-incubated at 37 °C for 20 min and then added 1 mL of albumin (stock solution 6 g/100 mL in phosphate buffer 0.1 M, pH 7.6) and incubated at 37 °C for 30 min. Secondly 1mLof 5% trichloroacetic acid was added to the incubated solution to stop the enzyme’s reaction and allowed to set at room temperature for 1 h. Then the solution was filtered, and the absorption of the filtrate was measured at 280 nm using salicylic acid as a reference compound [61] (Table 3).

soybean lipoxygenase = target: T1, soybean lipoxygenase (Glycine max, UniProt P08170); test: Soybean lipoxygenase inhibition in vitro; assay type: biochemical; conditions: sodium linoleate substrate, no = no action under the experimental conditions, read-out: LOX (% Inhibition 100 µM)
T1 construct: purchased Sigma Chemical, Co. (St. Louis)
T1 sequence (P08170 1-839): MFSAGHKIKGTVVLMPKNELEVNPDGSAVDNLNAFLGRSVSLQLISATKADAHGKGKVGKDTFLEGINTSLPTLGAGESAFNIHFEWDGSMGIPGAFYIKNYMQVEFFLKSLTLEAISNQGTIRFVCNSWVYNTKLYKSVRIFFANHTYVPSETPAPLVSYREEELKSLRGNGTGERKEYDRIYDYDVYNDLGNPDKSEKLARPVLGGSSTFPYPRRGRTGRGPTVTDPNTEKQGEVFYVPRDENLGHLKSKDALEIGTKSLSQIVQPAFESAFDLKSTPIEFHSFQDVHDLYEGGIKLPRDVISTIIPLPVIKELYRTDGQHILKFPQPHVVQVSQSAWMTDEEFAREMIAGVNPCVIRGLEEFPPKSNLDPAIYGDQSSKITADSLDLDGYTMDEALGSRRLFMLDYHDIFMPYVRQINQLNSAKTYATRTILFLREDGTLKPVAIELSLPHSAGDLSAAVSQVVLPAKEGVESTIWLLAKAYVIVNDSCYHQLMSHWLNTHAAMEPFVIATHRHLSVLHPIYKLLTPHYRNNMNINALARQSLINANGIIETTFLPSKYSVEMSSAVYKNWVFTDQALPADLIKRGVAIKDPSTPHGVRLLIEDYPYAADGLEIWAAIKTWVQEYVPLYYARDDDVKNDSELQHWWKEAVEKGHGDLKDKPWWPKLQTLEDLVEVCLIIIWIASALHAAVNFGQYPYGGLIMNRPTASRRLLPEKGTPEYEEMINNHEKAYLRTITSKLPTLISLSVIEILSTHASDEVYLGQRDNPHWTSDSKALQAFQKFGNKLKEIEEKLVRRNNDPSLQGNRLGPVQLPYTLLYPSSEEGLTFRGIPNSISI
Method: Thus, we used soybean LOX in our in vitro experiments.
In vitro study was performed as reported previously by our group. Sodium linoleate (0.1 mM) and 0.2 mL of enzyme solution (1/9 × 104 w/v in saline) were used for the incubation of the tested derivatives.

[3] = Experimental lipophilicity as RM values by RPTLC; assay type: physicochemical; parameters: key: RM = log[(1/Rf) − 1], from Rf values by RPTLC; conditions: methanol/water 70/30, 24 °C, average of at least 5 measurements
Excerpt: Lipophilicity is a physicochemical parameter indicating the relationship of a drug to its biological activity. It affects ligand-target binding interactions, solubility, ADME (absorption, distribution, bioavailability, metabolism, and elimination) and toxicological effects. RPTLC (reverse phase thin layer chromatography) method was used for the experimental determination, as RM values. The RPTLC method is considered a secure, rapid and appropriate method for expressing the lipophilic character of a compound (Table 1).
Reversed phase TLC (RPTLC) was performed on silica gel plates impregnated with 5% (v/v) liquid paraffin in light petroleum ether. The mobile phase was a methanol/water mixture (70/30, v/v). The plates were developed in closed chromatography tanks saturated with the mobile phase at 24 °C. Spots were detected under UV light. Five individual measurements of Rf values were recorded and used for the determination of RM using the equation RM = log [(1/Rf) − 1] [59, 60, 62] (Table 2).

[4] = Reducing activity of the stable radical DPPH; assay type: biochemical
Method: The novel derivatives were studied for their interaction with the sTable 2,2-diphenyl-1-picrylhydrazyl free radical (DPPH)at concentration 50 µM, 100 µM and 200 µM after 20 and 60 min (Table 2). In this assay the DPPH radical is reduced transferring one electron from the antioxidant. Phenolic compounds such as catechol and derivatives generate phenoxide anions with strong antioxidant capacity. Nordihydroguaretic acid (NDGA), the reference compound acts by this mechanism. Compound 10 presents the highest scavenging activity at 100 µM after 20 min correlated with the presence of the phenolic OH. Compounds 3, 4, 5, 7 presented medium activities depending from time and concentration. The presence of the heteroatom O or S seems to influence the activity e.g., derivatives 1, 2, and 3. Replacement of phenyl ring (4) by a thienyl group (1) decreases antioxidant behavior. […] On the contrary the presence of the furyl ring (3) enhances reduction. Additionally, the presence of a π-dimethyl-amino group 6 reduces the scavenging ability whereas its absence in (5), increases the activity. The presence of two conjugated double bonds (5) leads to lower activity compared to the simpler compound 4. Compounds 9 and 10 present the highest milogP values (5.94). Both include a phenolic hydrogen in their structure. […] On the contrary in compound 9 steric reasons are possible to lead to a decrease. Lipophilicity seems to influence the interaction of compound 10.
To a solution of DPPH in absolute ethanol an equal volume of the compounds with final concentrations of 50, 100 and 200 µM from a stock solution of 10 mM (in 1% DMSO and ethanol) was added. After 20 and 60 min the absorbance was recorded at 517 nm at room temperature (Table 2).

[5] = test system: carrageenin-induced rat paw edema; test: Inhibition of the carrageenin-induced rat paw edema (CPE); assay type: in vivo, Fisher 344 rats; conditions: Rattus norvegicus, ip; 0.01 mmol/kg body weight, intraperitoneally, 3.5 h after carrageenin; read-out: CPE % (reduction of the rat paw edema)
Excerpt: Carrageenin-induced rat paw edema (CPE) model was used to study the in vivo anti-inflammatory activity of the tested derivatives and the results are presented in Table 3. […] Compounds 2, 7, 8, 10, and 12 presented small differences in their biological activity. The presence of the thienyl group as well as of the furyl leads to higher anti-inflammatory activity (1 and 3) while substitution with a phenyl group leads to two-fold decrease of the activity (28%).
Edema was induced in the right hind paw of Fisher 344 rats (150–200 g) by the intradermal injection of 0.1 mL 2% carrageenin in water. Both sexes were used while females pregnant were excluded. Each group was composed of 6–15 animals. The animals, which have been bred in our laboratory, were housed under standard conditions and received a diet of commercial food pellets and water ad libitum during the maintenance but they were entirely fasted during the experiment period. Our studies were in accordance with recognised guidelines on animal experimentation. (guidelines for the care and use of laboratory animals published by the Greek Government 160/1991, based on EU regulations 86/609). Rats were kept in the Centre of the School of Veterinary Medicine (EL54 BIO42), Aristotle University of Thessaloniki, which is registered by the official state veterinary authorities (presidential degree 56/2013, in harmonization with the European Directive 2010/63/EEC). The experimental protocols were approved by the Animal Ethics Committee of the Prefecture of Central Macedonia (no. 270079/2500). The tested compounds 0.01 mmol/kg body weight were suspended in water, with a few drops of Tween 80 and ground in a mortar before use and were given intraperitoneally simultaneously with the carrageenin injection. The rats were euthanized 3.5 h after carrageenin injection. The difference between the weight of the injected and uninjected paws was calculated for each animal. The change in paw weight was compared with that in control animals (treated with water) and expressed as a percent inhibition of the edema CPE % values […] [58, 59]. Indomethacin in 0.01 mmol/kg (47%). Values CPE % are the mean from two different experiments with a standard error of the mean less than 10% (Table 3).

bovine thrombin = target: T2, bovine thrombin (Bos taurus, UniProt P00735); test: In vitro inhibition of thrombin; assay type: biochemical; conditions: substrate tosyl-Gly-Pro-Arg-pNA, no = no action under the experimental conditions, read-out: TH% 100 µM (thrombin inhibition)
T2 construct: purchased Sigma Chemical, Co. (St. Louis)
Method: It is well known that indandione derivatives exert their anticoagulant activity indirectly by inhibiting prothrombin synthesis in the liver. […] Derivatives 1, 2, 5, 8, 9, 10, and 12 were tested in vitro as possible thrombin inhibitors. Among the tested derivatives compound 8 presented 100% inhibition followed by compounds […] and 10.
As a substrate tosyl-Gly-Pro-Arg-pNA acetate salt was used at 1 mM final concentration. Compounds were dissolved at a final concentration of […] in a Tris-buffer (0.05 M Tris, 0.154 M NaCl, ethanol 5%, pH = 8.0). Three minutes after the addition of bovine thrombin (2.5 unit/mg), the reaction was ended by adding 1 mL acetic acid 50%. The absorption of the released p-nitro-aniline was measured at 405 nm (Table 3). Warfarin and Inogatran were used as reference compounds.

melting point [°C] | inhibition at 100 µM (soybean lipoxygenase) [%] | RM (±SD) [3] | inhibition at 100 µM (bovine thrombin) [%] | Compound | AAPH% 100 µM (anti-lipid peroxidation) [1] | ABTS+. % 100 µM (decolorization activity) [2] | Iptr% 100 µM (inhibition of trypsin induced proteolysis) (trypsin) | RA% 50 µM 20 min [4] [%] | RA% 50 µM 60 min [4] [%] | RA% 100 µM 20 min [4] [%] | RA% 100 µM 60 min [4] [%] | RA% 200 µM 20 min [4] [%] | RA% 200 µM 60 min [4] [%] | inhibition in vivo at 10 µmol/kg [5] [%]
165 to 167 | 26.4 | 0.158 ± 0 | – | O=C1C(=C/C=C\c2ccccc2)C(=O)c2ccccc21 [Compound 5, (Z)-2-(3-phenylallylidene)-1H-indene-1,3(2H)-dione] | no activity and no | no | do not present any activity and no | 21 | 25 | 44 | 48 | 57 | 72 | –
223 to 225 | 38.6 | −0.196 ± 0.02 | – | O=C1C(=Cc2ccc3[nH]ccc3c2)C(=O)c2ccccc21 [Compound 11, (Z)-2-((1H-indol-5-yl)methylene)-1H-indene-1,3(2H)-dione] | no activity and no | 8% | 6% | 2 | 2 | 19 | 19 | 10 | 10 | –
– | – | – | – | COc1ccc2c(c1)c(CC(=O)O)c(C)n2C(=O)c1ccc(Cl)cc1 [Indomethacin, reference compound] | – | – | – | – | – | – | – | – | – | 47
– | – | – | 98 | N=C(N)NCCCNC(=O)[C@@H]1CCCCN1C(=O)[C@@H](CC1CCCCC1)NCC(=O)O [Inogatran, reference compound] | – | – | – | – | – | – | – | – | – | –
– | – | – | – | CC(Cc1ccc(O)c(O)c1)C(C)Cc1ccc(O)c(O)c1 (centres unmarked) [NDGA, Nordihydroguaretic acid, reference compound] | – | – | – | 81 | 83 | 87 | 93 | 94 | 96 | –
– | – | – | – | O=C(O)c1ccccc1O [Salycilic Acid, salicylic acid, reference compound] | – | – | 54% | – | – | – | – | – | – | –
– | – | – | – | Cc1c(C)c2c(c(C)c1O)CCC(C)(C(=O)O)O2 (centres unmarked) [Trolox, reference compound] | 93% | 91% | – | – | – | – | – | – | – | –

— PMC6930570, “2-Arylidene-1-indandiones as Pleiotropic Agents with Antioxidant and Inhibitory Enzymes Activities” (Molecules, 2019)
